Row | melting point | SMILES
1 | 65 to 67 °C | CCCC1(C(=O)c2cc(F)c(N)c(Cl)c2)CCNC1 (centres unmarked)
2 | 265.6 to 266.9 °C | CCCC1(C(=O)c2ccc(O)c(Cl)c2)CCCNC1 (centres unmarked)
3 | 59.1 to 61 °C | COCC1(C(=O)c2ccc3[nH]ccc3c2)CCNC1 (centres unmarked)
4 | 252.6 to 254 °C | CCCC1(C(=O)c2ccc(Cl)c(Cl)c2)CCN1 (centres unmarked)
5 | 166 to 167 °C | CC(C)CC1(C(=O)c2cc(F)c(Cl)c(Cl)c2)CCNCC1
6 | > 300 °C | O=C(c1ccc2[nH]ncc2c1)C1(CC2CCCC2)CCCN1 (centres unmarked)
7 | 59 to 60 °C | CCCC1(C(=O)c2ccc(Cl)c(Cl)c2)CNC1
8 | 291 to 292 °C | O=C(c1ccc2[nH]ncc2c1)C1(CC2CC2)CCCN1 (centres unmarked)

Reference: patent publication US8084623B2, “Pyrrolidinyl and piperidinyl ketone derivatives and uses thereof” (Roche Palo Alto LLC, priority 2006, dated 2011)
